We go through 19 compounds from patent publication US7511033B2, “Dihydro-benzo[B][1,4]diazepin-2-one sulfonamide derivatives” (Hoffmann-La Roche Inc., priority 2007, dated 2009).

The target of one series is T1, rat mGlu2 receptor (Rattus norvegicus, UniProt P31421).
T1 construct: expressed in transfected cells; membranes prepared from them
Nature of the series: [3H]-LY354740 binding on mGlu2 transfected CHO cell membranes. Conditions: inhibition of 10 nM [3H]-LY354740 binding, room temperature, 1 hour. From the text: [^3H]-LY354740 Binding on mGlu2 Transfected CHO Cell Membranes. Transfection and Cell Culture
cDNA encoding the rat mGlu2 receptor protein in pBluescript II was subcloned into the eukaryotic expression vector pcDNA I-amp from Invitrogen Ltd (Paisley, UK). This vector construct (pcD1 mGR2) was co-transfected with a psvNeo plasmid encoding the gene for neomycin resistance, into CHO cells by a modified calcium phosphate method described by Chen & Okayama (1988). The cells were maintained in Dulbecco's Modified Eagle medium with reduced L-glutamine (1 mM final concentration), 36 mg/L L-Proline and 10% dialysed foetal calf serum from Gibco-Invitrogen; the medium was supplemented with 500 microM α-methyl-4-carboxyphenylglycine (MCPG). Selection was made in the presence of G-418 (300 ug/ml final concentration). Clones were identified by reverse transcription of 5 μg total RNA, followed by PCR using mGlu2 receptor specific primers 5′-[…]-3′ and 5′-[…]-3′ in 60 mM Tris HCl (pH 10), 15 mM (NH4)2SO4, 2 mM MgCl2, 25 units/ml Taq Polymerase with 30 cycles annealing at 60° C. for 1 min., extension at 72° C. for 30 s, and 1 min. 95° C. denaturation.
Cells, cultured as above, were harvested and washed three times with cold PBS and frozen at −80° C. The pellet was resuspended in cold 20 mM HEPES-NaOH buffer containing 10 mM EDTA (pH 7.4), and homogenized with a polytron (Kinematica, AG, Littau, Switzerland) for 10 s at 10 000 rpm. After centrifugation for 30 min. at 4° C., the pellet was washed once with cold 20 mM HEPES-NaOH buffer containing 0.1 mM EDTA, (pH 7.4). After a second centrifugation for 30 min. at 4° C. the pellet was resuspended in cold 20 mM HEPES-NaOH buffer containing 0.1 mM EDTA, (pH 7.4). Protein content was measured using the Micro BCA method from Pierce-Perbio (Rockford, Ill., USA) using bovine serum albumin as standard.
After thawing, the membranes were resuspended in cold 50 mM Tris-HCl buffer containing 2 mM MgCl2 (pH 7.4) (binding buffer). The final concentration of the membranes in the assays was 25 μg protein/ml. Inhibition experiments were performed with membranes incubated with 10 nM [^3H]-LY354740 at room temperature, for 1 hour, in presence of various concentrations of the compound to be tested. Following the incubations, membranes were filtered onto Whatmann GF/B glass fiber filters or onto GF/B Unifilter plates and washed 5 times with cold binding buffer. Non specific binding was measured in the presence of 10 μM (2S,2′R,3′R)-2-(2′3′-Dicarboxycyclopropyl)glycine (DCG IV from Tocris, Ellisville, Mo. USA). After transfer of the filters into plastic vials containing 10 ml of Ultima-gold scintillation fluid from Perkin-Elmer (Boston, Mass., USA), the radioactivity was measured by liquid scintillation in a Tri-Carb 2500 TR counter (Packard, Zürich, Switzerland). For 96-Unifilter plates the radioactivity was measured after addition of Microscint 40 scintillation fluid (Perkin Elmer, Boston Mass.) using a TopCount NXT (Packard)
The inhibition curves were fitted with a four parameter logistic equation giving IC50 values, and Hill coefficients.

As usually defined, the Ki is the dissociation constant of the complex between target and ligand, obtained from inhibition or displacement. In general, melting point refers to the temperature of the solid-liquid transition.

T1 sequence (P31421 19-872): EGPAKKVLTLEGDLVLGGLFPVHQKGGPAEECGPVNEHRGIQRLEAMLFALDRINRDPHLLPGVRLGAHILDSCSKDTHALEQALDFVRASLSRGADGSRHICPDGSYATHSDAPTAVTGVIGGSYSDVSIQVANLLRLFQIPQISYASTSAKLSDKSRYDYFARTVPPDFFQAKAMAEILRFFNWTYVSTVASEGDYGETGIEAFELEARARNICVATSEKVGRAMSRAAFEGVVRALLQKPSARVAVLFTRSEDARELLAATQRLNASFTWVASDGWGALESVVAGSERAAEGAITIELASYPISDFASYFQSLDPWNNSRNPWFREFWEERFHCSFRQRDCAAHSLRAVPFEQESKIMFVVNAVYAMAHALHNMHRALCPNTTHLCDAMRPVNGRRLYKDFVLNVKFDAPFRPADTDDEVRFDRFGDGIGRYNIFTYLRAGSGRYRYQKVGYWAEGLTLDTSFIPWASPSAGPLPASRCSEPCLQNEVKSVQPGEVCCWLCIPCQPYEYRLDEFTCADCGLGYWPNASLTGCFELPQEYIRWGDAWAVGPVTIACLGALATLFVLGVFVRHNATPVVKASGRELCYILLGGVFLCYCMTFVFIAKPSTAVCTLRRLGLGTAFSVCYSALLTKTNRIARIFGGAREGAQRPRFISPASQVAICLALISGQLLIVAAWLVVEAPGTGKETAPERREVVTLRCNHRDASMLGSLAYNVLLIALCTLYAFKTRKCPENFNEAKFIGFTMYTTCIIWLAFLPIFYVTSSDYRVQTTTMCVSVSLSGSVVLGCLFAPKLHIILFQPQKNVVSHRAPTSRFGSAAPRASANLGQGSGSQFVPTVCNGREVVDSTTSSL

Consider `CC(C)CN(C)c1cc2c(cc1C(F)(F)F)NC(=O)CC(c1cccc(-c3cccc(S(N)(=O)=O)c3)c1)=N2` [Example 15, 3′-[8-(Isobutyl-methyl-amino)-4-oxo-7-trifluoromethyl-4,5-dihydro-3H-benzo[b][1,4]diazepin-2-yl]-biphenyl-3-sulfonic acid amide], for which the melting point was 232 °C (dec.). At rat mGlu2 receptor, this compound had a Ki of 8.7 nM.
As to `CC(C)CN(C)c1cc2c(cc1C(F)(F)F)NC(=O)CC(c1cccc(-c3ccc(S(N)(=O)=O)cc3)c1)=N2` [Example 14, 3′-[8-(Isobutyl-methyl-amino)-4-oxo-7-trifluoromethyl-4,5-dihydro-3H-benzo[b][1,4]diazepin-2-yl]-biphenyl-4-sulfonic acid amide], the melting point was 236 °C (dec.). This compound had a Ki on rat mGlu2 receptor of 17 nM.
As for `CCOc1cc2c(cc1C(F)(F)F)NC(=O)CC(c1cccc(-c3ccc(S(=O)(=O)NC(C)(C)C)cc3)c1)=N2` [Example 7, 3′-(8-Ethoxy-4-oxo-7-trifluoromethyl-4,5-dihydro-3H-benzo[b][1,4]diazepin-2-yl)-biphenyl-4-sulfonic acid tert-butylamide], the melting point was greater than 260 °C. The compound also registered a Ki on rat mGlu2 receptor of 30 nM.
Turning to `CN(C)c1cc2c(cc1C(F)(F)F)NC(=O)CC(c1cccc(-c3ccc(S(N)(=O)=O)cc3)c1)=N2` [Example 12, 3′-(8-Dimethylamino-4-oxo-7-trifluoromethyl-4,5-dihydro-3H-benzo[b][1,4]diazepin-2-yl)-biphenyl-4-sulfonic acid amide], the melting point was 246 °C (dec.). The compound further came in with a Ki at rat mGlu2 receptor of 3.1 nM.
As to `CCOc1cc2c(cc1C(F)(F)F)NC(=O)CC(c1cccc(-c3ccc(S(N)(=O)=O)cc3)c1)=N2` [Example 11, 3′-(8-Ethoxy-4-oxo-7-trifluoromethyl-4,5-dihydro-3H-benzo[b][1,4]diazepin-2-yl)-biphenyl-4-sulfonic acid amide], the melting point is 245 to 250 °C (dec.). The compound further came in with a Ki at rat mGlu2 receptor of 3 nM.
Turning to `NS(=O)(=O)c1cccc(-c2cccc(C3=Nc4ccc(C(F)(F)F)cc4NC(=O)C3)c2)c1` [Example 8, 3′-(4-Oxo-7-trifluoromethyl-4,5-dihydro-3H-benzo[b][1,4]diazepin-2-yl)-biphenyl-3-sulfonic acid amide], the melting point was 170 °C (dec.). The Ki on rat mGlu2 receptor turned out to be 1.7 nM.
`CCOc1cc2c(cc1C(F)(F)F)NC(=O)CC(c1cccc(-c3cccc(S(=O)(=O)NC(C)(C)C)c3)c1)=N2` [Example 6, 3′-(8-Ethoxy-4-oxo-7-trifluoromethyl-4,5-dihydro-3H-benzo[b][1,4]diazepin-2-yl)-biphenyl-3-sulfonic acid tert-butylamide]: the melting point lay within 215 to 218 °C. The compound further gave a Ki at rat mGlu2 receptor of 9 nM.
For `CN(C)c1cc2c(cc1C(F)(F)F)NC(=O)CC(c1cccc(-c3cccc(S(N)(=O)=O)c3)c1)=N2` [Example 13, 3′-(8-Dimethylamino-4-oxo-7-trifluoromethyl-4,5-dihydro-3H-benzo[b][1,4]diazepin-2-yl)-biphenyl-3-sulfonic acid amide] the same measures were 258 °C (dec.) and 1.2 nM.
As for `Cc1cc2c(cc1C(F)(F)F)NC(=O)CC(c1cccc(-c3ccc(S(N)(=O)=O)cc3)c1)=N2` [Example 1, 3′-(8-Methyl-4-oxo-7-trifluoromethyl-4,5-dihydro-3H-benzo[b][1,4]diazepin-2-yl)-biphenyl-4-sulfonic acid amide], the melting point is greater than 260 °C. Besides, affinity on rat mGlu2 receptor was put at a Ki of 1.9 nM.
Regarding `NS(=O)(=O)c1ccc(-c2cccc(C3=Nc4ccc(-c5ccccc5F)cc4NC(=O)C3)c2)cc1` [Example 16, 3′-[7-(2-Fluoro-phenyl)-4-oxo-4,5-dihydro-3H-benzo[b][1,4]diazepin-2-yl]-biphenyl-4-sulfonic acid amide], the melting point was 240 to 250 °C (dec.). The Ki on rat mGlu2 receptor worked out at 5.6 nM.
Regarding `CC(C)CNc1cc2c(cc1C(F)(F)F)NC(=O)CC(c1cccc(-c3ccc(S(N)(=O)=O)cc3)c1)=N2` [Example 18, 3′-(8-Isobutylamino-4-oxo-7-trifluoromethyl-4,5-dihydro-3H-benzo[b][1,4]diazepin-2-yl)-biphenyl-4-sulfonic acid amide], at rat mGlu2 receptor, the Ki is 21 nM.
As to `CC(C)(C)NS(=O)(=O)c1ccc(-c2cccc(C3=Nc4ccc(C(F)(F)F)cc4NC(=O)C3)c2)cc1` [Example 5, 3′-(4-Oxo-7-trifluoromethyl-4,5-dihydro-3H-benzo[b][1,4]diazepin-2-yl)-biphenyl-4-sulfonic acid tert-butylamide], the melting point was 229 to 233 °C. The compound further came in with a Ki at rat mGlu2 receptor of 16 nM.
For `Cc1cc2c(cc1C(F)(F)F)NC(=O)CC(c1cccc(-c3cccc(S(=O)(=O)NC(C)(C)C)c3)c1)=N2` [Example 2, 3′-(8-Methyl-4-oxo-7-trifluoromethyl-4,5-dihydro-3H-benzo[b][1,4]diazepin-2-yl)-biphenyl-3-sulfonic acid tert-butylamide], the melting point was 133 °C (dec.). The compound further had a Ki on rat mGlu2 receptor of 20 nM.
Turning to `NS(=O)(=O)c1cccc(-c2cccc(C3=Nc4ccc(-c5ccccc5F)cc4NC(=O)C3)c2)c1` [Example 17, 3′-[7-(2-Fluoro-phenyl)-4-oxo-4,5-dihydro-3H-benzo[b][1,4]diazepin-2-yl]-biphenyl-3-sulfonic acid amide], the melting point lay within 230 to 232 °C. At rat mGlu2 receptor, this compound gave a Ki of 2.2 nM.
Turning to `NS(=O)(=O)c1ccc(-c2cccc(C3=Nc4ccc(C(F)(F)F)cc4NC(=O)C3)c2)cc1` [Example 9, 3′-(4-Oxo-7-trifluoromethyl-4,5-dihydro-3H-benzo[b][1,4]diazepin-2-yl)-biphenyl-4-sulfonic acid amide], the melting point was 195 to 210 °C (dec.). Also, the Ki on rat mGlu2 receptor worked out at 3 nM.
As for `CCOc1cc2c(cc1C(F)(F)F)NC(=O)CC(c1cccc(-c3cccc(S(N)(=O)=O)c3)c1)=N2` [Example 10, 3′-(8-Ethoxy-4-oxo-7-trifluoromethyl-4,5-dihydro-3H-benzo[b][1,4]diazepin-2-yl)-biphenyl-3-sulfonic acid amide], the melting point is 210 to 220 °C (dec.). The compound also yielded a Ki on rat mGlu2 receptor of 2.7 nM.
`CC(C)(C)NS(=O)(=O)c1cccc(-c2cccc(C3=Nc4ccc(C(F)(F)F)cc4NC(=O)C3)c2)c1` [Example 4, 3′-(4-Oxo-7-trifluoromethyl-4,5-dihydro-3H-benzo[b][1,4]diazepin-2-yl)-biphenyl-3-sulfonic acid tert-butylamide] yielded a melting point of 179 to 181 °C. Moreover, on rat mGlu2 receptor, the affinity corresponds to a Ki of 12 nM.
For the compound `CC(C)CNc1cc2c(cc1C(F)(F)F)NC(=O)CC(c1cccc(-c3cccc(S(N)(=O)=O)c3)c1)=N2` [Example 19, 3′-(8-Isobutylamino-4-oxo-7-trifluoromethyl-4,5-dihydro-3H-benzo[b][1,4]diazepin-2-yl)-biphenyl-3-sulfonic acid amide], the melting point is 251 °C (dec.). At rat mGlu2 receptor, the Ki was 3.6 nM.
With `Cc1cc2c(cc1C(F)(F)F)NC(=O)CC(c1cccc(-c3cccc(S(N)(=O)=O)c3)c1)=N2` [Example 3, 3′-(8-Methyl-4-oxo-7-trifluoromethyl-4,5-dihydro-3H-benzo[b][1,4]diazepin-2-yl)-biphenyl-3-sulfonic acid amide], the melting point is 235 to 239 °C (dec.). Besides, on rat mGlu2 receptor, affinity was put at a Ki of 0.9 nM.
